According to patent publication US11945806B2, “Stabilization of amyloidogenic immunoglobulin light chains” (The Scripps Research Institute, priority 2019, dated 2024):

These compounds were tested against WIL-FL (Homo sapiens, UniProt P01721) (assay: Unlabeled LC Protease Sensitivity Assay (proteinase K)). Conditions: small molecule 10 μM, WIL-FL 5 μM, proteinase K 50 nM, 2 hours at 37° C.
Assay type: biochemical
Outline: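 Compound at 10 μM (1% DMSO) is mixed with 5 μM WIL-FL and 50 nM proteinase K in PBS pH 7.4/0.02% Pluronic F-127, 37 °C, 2 h, then quenched with PMSF. Remaining protein measured by SEC-UPLC peak area at 280 nm and expressed as fold protection relative to vehicle and no-protease controls.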

Structure (SMILES) | Protection (fold protection of LC from protease)
CCN(CC)c1ccc2c(C)c(CC(=O)NCCc3ccccc3)c(=O)oc2c1 [Compound 55, 2-(7-(diethylamino)-4-methyl-2-oxo-2H-chromen-3-yl)-N-phenethylacetamide] | A (A < 0.3))
Cc1cc(=O)oc2cc(C#N)ccc12 [Compound 224, 4-methyl-2-oxo-2H-chromene-7-carbonitrile] | A (A < 0.3))
CCN(CC)c1ccc2c(C)c(CCOC(=O)NCc3cccc(-c4c[nH]cn4)c3)c(=O)oc2c1 [Compound 141, 2-(7-(diethylamino)-4-methyl-2-oxo-2H-chromen-3-yl)ethyl (3-(1H-imidazol-4-yl)benzyl)carbamate] | C (C ≥ 0.6)
CCN(CC)c1ccc2c(C)c(CCN3C(=O)NC4(CCN(c5ccc(C(F)(F)F)cn5)C4)C3=O)c(=O)oc2c1 (centres unmarked) [Compound 196, 3-(2-(7-(diethylamino)-4-methyl-2-oxo-2H-chromen-3-yl)ethyl)-7-(5-(trifluoromethyl)pyridin-2-yl)-1,3,7-triazaspiro[4.4]nonane-2,4-dione] | A (A < 0.3))
CCN(CC)c1ccc2c(C)c(CCN3CC4(CCN(c5nccn6ccnc56)CC4)NC3=O)c(=O)oc2c1 [Compound 223, 3-(2-(7-(diethylamino)-4-methyl-2-oxo-2H-chromen-3-yl)ethyl)-8-(imidazo[1,2-a]pyrazin-8-yl)-1,3,8-triazaspiro[4.5]decan-2-one] | C (C ≥ 0.6)
CCN(CC)c1ccc2c(C)c(CCOC(=O)NCc3cccc(C(=O)O)c3)c(=O)oc2c1 [Compound 123, 3-((((2-(7-(diethylamino)-4-methyl-2-oxo-2H-chromen-3-yl)ethoxy)carbonyl)amino)methyl)benzoic acid] | B (3 ≤ B < 0.6)
CCN(CC)c1ccc2c(C)c(CCOC(=O)NC)c(=O)oc2c1 [Compound 79, 2-(7-(diethylamino)-4-methyl-2-oxo-2H-chromen-3-yl)ethyl methylcarbamate] | A (A < 0.3))
CCN(CC)c1ccc2c(C)c(CC(=O)NCCCN(C)C)c(=O)oc2c1 [Compound 59, 2-(7-(diethylamino)-4-methyl-2-oxo-2H-chromen-3-yl)-N-(3-(dimethylamino)propyl)acetamide] | A (A < 0.3))
Cc1cc(=O)oc2cc(NCCc3ccccc3)ccc12 [Compound 40, 4-methyl-7-(phenethylamino)-2H-chromen-2-one] | A (A < 0.3))
CCN(CC)c1ccc2c(CCCOC(=O)NCc3ccccc3)cc(=O)oc2c1 [Compound 300, 3-(7-(diethylamino)-2-oxo-2H-chromen-4-yl)propyl benzylcarbamate] | A (A < 0.3))
Cc1cc(=O)oc2cc(N(CCCF)CCCF)ccc12 [Compound 250, 7-(bis(3-fluoropropyl)amino)-4-methyl-2H-chromen-2-one] | A (A < 0.3))
CCN(CC)c1ccc2c(C)c(CCNC(=O)NCc3cccc(OCC(=O)OC)c3)c(=O)oc2c1 [Compound 312, Methyl 2-(3-((3-(2-(7-(diethylamino)-4-methyl-2-oxo-2H-chromen-3-yl)ethyl)ureido)methyl)phenoxy)acetate] | C (C ≥ 0.6)
CCN(CC)c1ccc2c(C)c(CCNC(=O)NCc3cccc(Cl)n3)c(=O)oc2c1 [Compound 282, 1-((6-chloropyridin-2-yl)methyl)-3-(2-(7-(diethylamino)-4-methyl-2-oxo-2H-chromen-3-yl)ethyl)urea] | B (3 ≤ B < 0.6)
C#CCN(CC#C)c1ccc2c(C)cc(=O)oc2c1 [Compound 248, 7-(di(prop-2-yn-1-yl)amino)-4-methyl-2H-chromen-2-one] | B (3 ≤ B < 0.6)
